US20200230205A1, “COMPOSITIONS AND METHODS FOR TREATING MYELIN DISORDERS” (CASE WESTERN RESERVE UNIVERSITY, priority 2017, published 2020)

Test system: laminin
Assay: Laminin degradation by OPC conditioned media (spot staining and western blot)
Type: cell-based, mouse
Method: CSPG gradients were prepared as described previously (Tom, V. J., et al. Studies on the Development and Behavior of the Dystrophic Growth Cone, the Hallmark of Regeneration Failure, in an In vitro Model of the Glial Scar and after Spinal Cord Injury.). 24-well glass coverslip were coated with poly-L-lysine and nitrocellulose, and a mixture of 700 μg/mL aggrecan (A1960 Sigma) and 10 μg/mL laminin (11243217001 Sigma) spotted on the coated coverslip. After drying, coated coverslips were then incubated with laminin at 37° C. for 3h. Purified OPCs were plated at a density of 10,000/coverslip and cultured in DMEM/F12 medium containing with N2, PDGF (20 ng/ml), FGF (20 ng/ml), NT-3 (5 ng/ml), CNTF (O1 ng/ml), Glutamine (200 mM). Coverslips were stained with CS-56 (C8035, Sigma, 1:500) and O4 antibodies (Hybridoma Core Cleveland Clinic, 1:10). O4-positive cells crossing the aggrecan border were counted for each spot. For CSPG gradient quantification, 1×10^6 OPCs were plated per well on PLL, 1 μg/mL laminin, and 2 μg/mL aggrecan coated 6-well plates. OPCs treated with vehicle, 2.5 μM ISP, or 2.5 μM SISP for 2 days at 37° C. CM was harvested and incubated with freshly made spots. […] Using ImageJ software (NIH), pixel intensities of the CS-56 or laminin spot rims were quantified using the same ROI. […]

## GRKKRRQRRRCDMAEHMERLKANDSLKLSQEYESI [ISP]
CM of OPCs treated with 2.5 μM ISP
  laminin portion of the spot, immunostaining: completely spared
OPC CM, 2.5 μM ISP, laminin 10 μg/mL
  laminin immunoblot: no significant changes
